These results are taken from ChEMBL document CHEMBL5107965, “The progress of small-molecules and degraders against BCR-ABL for the treatment of CML” (Eur J Med Chem, 2022).

Data set [1] has as its system K562. Description: Antiproliferative activity against human K562 cells assessed as cell growth inhibition measured after 24 hrs by WST-8 assay. Format: functional, cell-based. The settings on record: K562, 24 h. On the technique in general: Tetrazolium dyes change colour on reduction, which living cells bring about.
Data set [2] addresses Protein cereblon/Tyrosine-protein kinase ABL1/Breakpoint cluster region protein (Homo sapiens, UniProt P00519+P11274+Q96SW2). Description: Protac activity at CRBN/BCR-ABL in human K562 cells assessed as reduction in BCR-ABL protein levels incubated for 6 hrs by Western blotting analysis. Format: cell-based.
The subject of data set [3] is KU812 cell line. Description: Antiproliferative activity against human KU812 cell line assessed as cell growth inhibition measured after 24 hrs by WST-8 assay. Format: functional, cell-based. The settings on record: KU812, 24 h.
The test system of data set [4] is KCL-22. Description: Antiproliferative activity against human KCL-22 cells assessed as cell growth inhibition measured after 24 hrs by WST-8 assay. Format: functional, cell-based. The conditions noted are these: KCL-22, 24 h.
The target in data set [5] is Tyrosine-protein kinase ABL1 (Homo sapiens, UniProt P00519). Description: Binding affinity to human recombinant His-tagged full length ABL1 expressed in baculovirus expression system by TR-FRET assay. For orientation: In TR-FRET formats the signal depends on donor and acceptor labels being close together.
Data set [6] in a line: Inhibition of Abl […] mutant (unknown origin). Set-up: species or system Homo sapiens.
Data set [7] deals with K562. As to the kind of experiment: Antiproliferative activity against human K562 cells assessed as cell growth inhibition measured after 24 to 48 hrs by MTS assay. Format: functional, cell-based.
In data set [8] the test system is KBM5. As to the kind of experiment: Antiproliferative activity against human KBM5 cells harbouring T315I mutant assessed as cell growth inhibition measured after 24 to 48 hrs by MTS assay. Format: functional, cell-based.
Data set [9] relates to KBM5. As to the kind of experiment: Antiproliferative activity against human KBM5 cells assessed as cell growth inhibition measured after 24 to 48 hrs by MTS assay. Format: functional, cell-based.
Data set [10] in a line: Cytotoxicity against human CD34-positive/CD38-negative leukemic cell assessed as cell growth inhibition measured after 48 hrs by MTT assay. Format: functional, cell-based.
Data set [11] deals with Leukemia cell. Description: Cytotoxicity against human Leukemia cell assessed as cell growth inhibition measured after 48 hrs by MTT assay. Format: functional, cell-based.
Data set [12] deals with K562. Description: Antiproliferative activity against imatinib resistant human K562 cells assessed as cell growth inhibition measured after 48 hrs by MTT assay. Format: functional, cell-based. The settings on record: K562, 48 h.
The subject of data set [13] is K562. As to the kind of experiment: Antiproliferative activity against human K562 cells assessed as cell growth inhibition measured after 24 hrs. The settings on record: K562, 24 h. Format: functional, cell-based.
Data set [14] is described as follows: Half life in mouse at 10 mg/kg, po measured after upto 24 hrs by LC-MS/MS analysis. Format: ADME, organism-based. The conditions noted are these: in vivo.
For data set [15], the target named is von Hippel-Lindau disease tumor suppressor/Tyrosine-protein kinase ABL1/Breakpoint cluster region protein (Homo sapiens, UniProt P00519+P11274+P40337). As to the kind of experiment: Protac activity at VHL/BCR-ABL in human K562 cells assessed as reduction in BCR-ABL protein levels by immunoblotting analysis. Format: cell-based. (In western blotting, separated proteins are transferred to a membrane and probed.)

The nature of data set [16]: Cmax in mouse at 10 mg/kg, po measured after upto 24 hrs by LC-MS/MS analysis. Format: ADME, organism-based. Set-up: dose 10 mg/kg, time < 24 hrs, route po. The settings on record: in vivo.
Data set [17] relates to K562. Description: Antiproliferative activity against human K562 cells assessed as cell growth inhibition. Format: functional, cell-based.
The nature of data set [18]: Inhibition of Aurora kinase (unknown origin). Set-up: species or system Homo sapiens.
In data set [19] the test system is HL-60. As to the kind of experiment: animal or person. The settings on record: Mus musculus, HL-60, 528 h, read-out: TGI.
Description: Antitumor activity against human HL-60 cells xenografted in SCID mouse assessed as tumor growth inhibition at 30 mg/kg, iv measured after 22 days relative to control
Data set [20] in a line: AUC in BALB/c mouse at 30 mg/kg, po via gavage. On the set-up: dose 30 mg/kg, route po. Format: ADME, organism-based. The conditions noted are these: in vivo.
A short description of data set [21]: Cmax in BALB/c mouse at 30 mg/kg, po via gavage. On the set-up: dose 30 mg/kg, route po. Format: ADME, organism-based. The conditions noted are these: in vivo.
Data set [22] in a line: Half life in BALB/c mouse at 30 mg/kg, po via gavage. The settings on record: in vivo. Format: ADME, organism-based.
The nature of data set [23]: Oral bioavailability in BALB/c mouse at 30 mg/kg via gavage. The settings on record: in vivo. Format: ADME, organism-based.
The nature of data set [24]: Tmax in BALB/c mouse at 30 mg/kg, po via gavage. Format: ADME, organism-based. The conditions noted are these: in vivo.
Data set [25] concerns the target Tyrosine-protein kinase Lyn (Homo sapiens, UniProt P07948). As to the kind of experiment: Inhibition of LYN (unknown origin) in presence of [gamma33P]-ATP and ATP by ELISA method.
Data set [26] addresses Mast/stem cell growth factor receptor Kit (Homo sapiens, UniProt P10721). Description: Inhibition of c-Kit (unknown origin).
Data set [27] addresses Platelet-derived growth factor receptor beta (Homo sapiens, UniProt P09619). As to the kind of experiment: Inhibition of PDGFRbeta (unknown origin).
The target of data set [28] is Bcr/Abl fusion protein (Homo sapiens, UniProt P00519). As to the kind of experiment: Inhibition of BCR-ABL (unknown origin). Format: protein assay.

A word on the IC50: it is the point on the concentration scale where inhibition reaches its midpoint. The half-life is the time needed for the level to fall by half in the phase considered. A high value points to slow loss. In general, Cmax refers to the highest concentration seen after dosing. Broadly, the AUC is the area under the concentration-time curve, a measure of exposure. Low readings indicate low exposure, high ones high exposure. By bioavailability is commonly meant dose-corrected exposure relative to a reference, in per cent. Read a low bioavailability as little systemic uptake. What is called Tmax is the time at which the peak concentration occurs.

Values after ≈ are worked out from the molar mass of the structure shown.

Chain of Mast/stem cell growth factor receptor Kit (P10721 whole entry): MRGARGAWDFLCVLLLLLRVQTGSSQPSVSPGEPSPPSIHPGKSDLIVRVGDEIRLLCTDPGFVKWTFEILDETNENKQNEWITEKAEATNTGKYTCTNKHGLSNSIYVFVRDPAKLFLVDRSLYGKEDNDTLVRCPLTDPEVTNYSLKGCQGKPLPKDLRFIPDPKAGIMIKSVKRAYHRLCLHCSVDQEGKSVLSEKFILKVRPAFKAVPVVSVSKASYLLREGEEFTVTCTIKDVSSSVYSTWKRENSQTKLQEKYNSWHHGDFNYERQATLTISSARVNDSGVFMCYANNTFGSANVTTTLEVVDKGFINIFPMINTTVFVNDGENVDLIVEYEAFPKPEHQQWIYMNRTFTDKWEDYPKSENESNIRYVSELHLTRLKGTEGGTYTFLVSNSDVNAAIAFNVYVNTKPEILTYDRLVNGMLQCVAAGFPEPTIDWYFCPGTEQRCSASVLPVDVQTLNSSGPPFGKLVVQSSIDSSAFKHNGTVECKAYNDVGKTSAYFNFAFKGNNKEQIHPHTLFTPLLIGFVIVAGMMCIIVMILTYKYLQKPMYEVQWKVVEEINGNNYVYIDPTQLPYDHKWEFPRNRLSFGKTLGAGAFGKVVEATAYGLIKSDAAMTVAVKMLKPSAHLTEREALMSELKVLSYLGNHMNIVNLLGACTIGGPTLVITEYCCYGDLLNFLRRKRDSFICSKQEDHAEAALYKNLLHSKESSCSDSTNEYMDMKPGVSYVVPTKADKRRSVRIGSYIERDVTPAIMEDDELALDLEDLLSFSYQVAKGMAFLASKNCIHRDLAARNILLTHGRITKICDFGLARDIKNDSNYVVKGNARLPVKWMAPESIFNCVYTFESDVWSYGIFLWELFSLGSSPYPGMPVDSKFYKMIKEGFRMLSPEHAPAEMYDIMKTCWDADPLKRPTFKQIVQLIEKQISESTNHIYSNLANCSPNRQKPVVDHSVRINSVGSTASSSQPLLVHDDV
Chain of Bcr/Abl fusion protein (P00519 whole entry, the tested form may be a part): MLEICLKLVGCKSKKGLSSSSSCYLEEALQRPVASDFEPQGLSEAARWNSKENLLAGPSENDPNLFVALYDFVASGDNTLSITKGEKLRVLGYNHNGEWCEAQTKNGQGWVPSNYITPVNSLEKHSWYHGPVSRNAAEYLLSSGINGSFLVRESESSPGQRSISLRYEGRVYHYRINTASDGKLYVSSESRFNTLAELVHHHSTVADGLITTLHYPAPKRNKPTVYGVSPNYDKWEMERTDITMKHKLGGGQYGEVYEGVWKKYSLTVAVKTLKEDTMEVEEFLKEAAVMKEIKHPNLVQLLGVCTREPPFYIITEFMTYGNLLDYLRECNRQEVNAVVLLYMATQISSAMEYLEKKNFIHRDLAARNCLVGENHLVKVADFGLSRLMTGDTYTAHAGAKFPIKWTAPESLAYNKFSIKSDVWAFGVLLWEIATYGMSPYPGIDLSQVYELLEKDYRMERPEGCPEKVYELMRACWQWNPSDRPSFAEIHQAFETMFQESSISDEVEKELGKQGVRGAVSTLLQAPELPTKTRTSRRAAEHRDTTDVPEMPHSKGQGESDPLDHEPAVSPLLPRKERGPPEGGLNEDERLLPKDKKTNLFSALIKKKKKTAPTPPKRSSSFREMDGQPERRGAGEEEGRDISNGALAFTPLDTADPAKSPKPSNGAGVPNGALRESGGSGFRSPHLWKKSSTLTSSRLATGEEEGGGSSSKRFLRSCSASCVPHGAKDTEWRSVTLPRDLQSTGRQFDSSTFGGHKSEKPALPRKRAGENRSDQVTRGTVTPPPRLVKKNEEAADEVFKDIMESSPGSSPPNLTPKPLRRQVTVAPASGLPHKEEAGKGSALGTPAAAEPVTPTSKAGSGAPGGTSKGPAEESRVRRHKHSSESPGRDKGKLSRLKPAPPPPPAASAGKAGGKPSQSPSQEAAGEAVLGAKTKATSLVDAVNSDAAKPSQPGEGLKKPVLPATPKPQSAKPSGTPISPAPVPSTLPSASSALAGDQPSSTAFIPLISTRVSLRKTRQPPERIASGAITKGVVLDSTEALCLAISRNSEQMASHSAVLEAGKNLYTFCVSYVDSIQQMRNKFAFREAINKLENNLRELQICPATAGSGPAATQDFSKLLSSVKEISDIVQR
Chain of Bcr/Abl fusion protein (P11274 whole entry, further chain, the tested form may be a part): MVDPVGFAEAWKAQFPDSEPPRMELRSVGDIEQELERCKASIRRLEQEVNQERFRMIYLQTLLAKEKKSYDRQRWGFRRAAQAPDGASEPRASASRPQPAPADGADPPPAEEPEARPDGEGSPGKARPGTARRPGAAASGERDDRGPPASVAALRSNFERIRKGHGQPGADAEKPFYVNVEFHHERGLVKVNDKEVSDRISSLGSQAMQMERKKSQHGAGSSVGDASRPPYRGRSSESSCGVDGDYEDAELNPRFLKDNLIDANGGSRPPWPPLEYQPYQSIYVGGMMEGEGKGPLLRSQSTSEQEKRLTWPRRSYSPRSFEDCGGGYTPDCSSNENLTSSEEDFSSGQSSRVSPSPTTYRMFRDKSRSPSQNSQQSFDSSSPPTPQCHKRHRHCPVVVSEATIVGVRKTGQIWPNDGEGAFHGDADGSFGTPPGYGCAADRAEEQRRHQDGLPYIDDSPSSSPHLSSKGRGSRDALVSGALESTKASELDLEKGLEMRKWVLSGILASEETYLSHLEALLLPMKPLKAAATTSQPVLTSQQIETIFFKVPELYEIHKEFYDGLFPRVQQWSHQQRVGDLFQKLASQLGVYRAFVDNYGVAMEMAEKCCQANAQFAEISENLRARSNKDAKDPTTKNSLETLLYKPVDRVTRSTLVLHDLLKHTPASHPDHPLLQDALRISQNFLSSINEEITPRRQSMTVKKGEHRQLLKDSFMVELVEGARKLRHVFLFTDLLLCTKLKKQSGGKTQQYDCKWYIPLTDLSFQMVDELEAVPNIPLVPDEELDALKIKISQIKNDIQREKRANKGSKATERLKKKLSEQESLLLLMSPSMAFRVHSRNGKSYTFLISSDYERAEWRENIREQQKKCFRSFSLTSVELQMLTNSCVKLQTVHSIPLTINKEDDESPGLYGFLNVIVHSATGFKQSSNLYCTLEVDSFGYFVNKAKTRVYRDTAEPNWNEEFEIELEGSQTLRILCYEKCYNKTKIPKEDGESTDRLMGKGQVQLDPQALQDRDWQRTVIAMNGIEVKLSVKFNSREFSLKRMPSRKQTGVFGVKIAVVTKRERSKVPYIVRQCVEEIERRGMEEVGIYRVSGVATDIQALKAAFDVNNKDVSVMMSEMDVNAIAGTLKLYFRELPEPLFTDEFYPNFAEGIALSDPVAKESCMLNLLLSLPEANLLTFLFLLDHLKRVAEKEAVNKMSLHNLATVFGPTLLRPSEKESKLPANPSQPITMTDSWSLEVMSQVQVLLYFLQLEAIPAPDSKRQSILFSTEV
Chain of Tyrosine-protein kinase ABL1 (P00519 whole entry): as the sequence (P00519 whole entry, the tested form may be a part) above
Chain of Tyrosine-protein kinase Lyn (P07948 whole entry): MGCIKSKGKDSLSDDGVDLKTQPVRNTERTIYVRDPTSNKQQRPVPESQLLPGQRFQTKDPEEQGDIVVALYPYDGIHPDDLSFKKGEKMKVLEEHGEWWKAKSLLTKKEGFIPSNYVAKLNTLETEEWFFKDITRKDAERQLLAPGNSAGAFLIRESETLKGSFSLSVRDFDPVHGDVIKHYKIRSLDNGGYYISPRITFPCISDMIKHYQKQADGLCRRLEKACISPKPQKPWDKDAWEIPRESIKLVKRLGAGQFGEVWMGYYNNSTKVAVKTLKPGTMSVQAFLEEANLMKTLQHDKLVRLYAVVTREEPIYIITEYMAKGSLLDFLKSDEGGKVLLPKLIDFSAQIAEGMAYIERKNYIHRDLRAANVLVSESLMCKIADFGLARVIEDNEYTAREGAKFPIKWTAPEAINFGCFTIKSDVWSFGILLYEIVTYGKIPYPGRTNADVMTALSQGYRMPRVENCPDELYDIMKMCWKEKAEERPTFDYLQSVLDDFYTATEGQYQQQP

On to `CN[C@@H](C)C(=O)N[C@H](C(=O)N1CCC[C@H]1c1nc(C(=O)c2cccc(OCCCOCC(=O)N3CCN(c4cc(Nc5ncc(C(=O)Nc6c(C)cccc6Cl)s5)nc(C)n4)CC3)c2)cs1)C1CCCCC1`, for which the IC50 amounted to 8.92 nM in [1], 6.72 nM in [3], 8.06 nM in data set [4] and 0.54 nM in [5]. Also, the DC50 in data set [2] is 10 nM.

`CNC(=O)c1cc(Oc2ccc(NC(=O)Nc3cc(C(C)(C)C)nn3-c3ccc4ncccc4c3)c(F)c2)ccn1` [REBASTINIB] returned an IC50 in data set [6] of 1.4 nM.

Regarding `COc1ccc(-c2cc(=O)c3c(O)cc(O)cc3o2)cc1O` [DIOSMETIN], the IC50 in data set [7] was 8.42 µM; in data set [8], 6.46 µM; in data set [9], 8.52 µM.

With `COc1ccc2cc1Oc1ccc(cc1)C[C@H]1c3cc(c(OC)cc3CCN1C)Oc1c(OC)c(OC)cc3c1[C@H](C2)N(C)CC3.O=C(O)CC(O)(CC(=O)O)C(=O)O`, the IC50 in data set [10], in [11] and in [12] was 1.2 µg/mL throughout.

Take `Cc1ncsc1-c1ccc(CNC(=O)[C@@H]2C[C@@H](O)CN2C(=O)[C@@H](NC(=O)COCCNc2ccc(C(=O)Nc3ccc(OC(F)(F)Cl)cc3)cc2-c2cc[nH]n2)C(C)(C)C)cc1`: the concentration for half-maximal inhibition (IC50) in data set [13] turned out to be 169 nM. The compound further showed a half-life in data set [14] of 220 min. In data set [15], the DC50 was 30 nM. Further, in [16], the Cmax is 536 ng/mL.

With `COc1cc2c3cc1Oc1c(OC)c(OC)cc4c1[C@@H](Cc1ccc(OC(=O)c5ccc(Cl)cc5)c(c1)Oc1ccc(cc1)C[C@@H]3N(C)CC2)N(C)CC4`, the IC50 in data set [17] was 0.5 µg/mL (≈ 0.669 µM).

As to `CO[C@H](C(=O)N1Cc2[nH]nc(NC(=O)c3ccc(N4CCN(C)CC4)cc3)c2C1)c1ccccc1`, in [18], 13 nM corresponded to half-maximal inhibition (IC50). For the same compound, the inhibition in vivo at 30 mg/kg in data set [19] was found to be 98%.

Consider `Cc1ccc(NC(=O)c2ccc(CN3CC[C@H](N(C)C)C3)c(C(F)(F)F)c2)cc1Nc1nccc(-c2cncnc2)n1` [BAFETINIB], for which, in [20], the AUC was found to be 2290 ng·h/mL. In [21], the highest concentration (Cmax) was determined as 661 ng/mL. In data set [22], the half-life was 60 min. Besides, the bioavailability in data set [23] was determined as 32%. Moreover, the Tmax in data set [24] came out at 2 h. For the same compound, the IC50 in data set [25] amounted to 19 nM.

For the compound `Cc1ncc(NC(=O)c2ccc(CN3CCN(C)CC3)c(C(F)(F)F)c2)cc1Nc1nccc(-c2cccnc2)n1` [FLUMATINIB], the IC50 was 666 nM in [26] and 308 nM in data set [27].

Take `Cc1cn(-c2cc(NC(=O)c3ccc(C)c(Nc4nccc(-c5cnccn5)n4)c3)cc(C(F)(F)F)c2)cn1` [RADOTINIB]: in data set [28], the half-inhibitory concentration (IC50) is 1.2 nM.
